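Grown in 96-well plates, cells were treated for 48 hours with each compound at five concentrations. Insufficient inhibition: endpoint recorded as highest concentration tested. Here, GI50 denotes the concentration required for 50% inhibition of growth.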 Activity calls are given as the source filed them. Cut-off read from the data, not from the text of the source: active = GI50 up to about 1.1 µM and inactive = higher.
Key:
Assay in all cases: growth of human tumour cells (NCI), 48 h
CAKI-1 = system: CAKI-1
CCRF-CEM = system: CCRF-CEM
COLO 205 = system: COLO 205
HCT-116 = system: HCT-116
HCT-15 = system: HCT-15
HL-60 = system: HL-60
HOP-92 = system: HOP-92
HT-29 = system: HT-29
K562 = system: K562
KM-20L2 = system: KM-20L2
MOLT-4 = system: MOLT-4
NCI-H226 = system: NCI-H226
OVCAR-8 = system: OVCAR-8
RPMI-8226 = system: RPMI-8226
SNB-19 = system: SNB-19
SW-620 = system: SW-620
U-251 = system: U-251
MDA-N = system: MDA-N
NCI/ADR-RES = system: NCI/ADR-RES
PC-3 = system: PC-3

SMILES	GI50 (CAKI-1)	GI50 (CCRF-CEM)	GI50 (COLO 205)	GI50 (HCT-116)	GI50 (HCT-15) [µM]	GI50 (HL-60)	GI50 (HOP-92)	GI50 (HT-29)	GI50 (K562)	GI50 (KM-20L2)	GI50 (MOLT-4)	GI50 (NCI-H226)	GI50 (OVCAR-8)	GI50 (RPMI-8226)	GI50 (SNB-19)	GI50 (SW-620)	GI50 (U-251)	GI50 (MDA-N)	GI50 (NCI/ADR-RES)	GI50 (PC-3)
CC(=O)OC(C)(C)/C=C/C(=O)[C@](C)(O)[C@H]1[C@H](O)C[C@@]2(C)[C@@H]3CC=C4[C@@H](C[C@H](O)[C@H](O)C4(C)C)[C@]3(C)C(=O)C[C@]12C	0.385 µM (active)	0.229 µM (active)	0.31 µM (active)	0.277 µM (active)	0.294	0.243 µM (active)	0.22 µM (active)	0.302 µM (active)	0.272 µM (active)	0.513 µM (active)	0.289 µM (active)	0.984 µM (active)	0.33 µM (active)	0.107 µM (active)	0.7 µM (active)	0.274 µM (active)	0.687 µM (active)			
CC(C)(C)N/N=C(\C(=O)Nc1nnc(S)[nH]1)C1C(=O)Nc2ccccc2[S+]1[O-] (stereo not drawn)	> 100 µM (inactive)	> 100 µM (inactive)	> 100 µM (inactive)	> 100 µM (inactive)	> 100	> 100 µM (inactive)		> 100 µM (inactive)	> 100 µM (inactive)	> 100 µM (inactive)	> 100 µM (inactive)	> 100 µM (inactive)	> 100 µM (inactive)	> 100 µM (inactive)	> 100 µM (inactive)	> 100 µM (inactive)	> 100 µM (inactive)			
O=C(NC(=O)c1cc2cc(Br)cc(Br)c2oc1=O)Oc1ccccc1	43 µM (inactive)	> 100 µM (inactive)	> 100 µM (inactive)	> 100 µM (inactive)	> 100		> 100 µM (inactive)	> 100 µM (inactive)	> 100 µM (inactive)	> 100 µM (inactive)	> 100 µM (inactive)	78.2 µM (inactive)	46.5 µM (inactive)	> 100 µM (inactive)	59.8 µM (inactive)	> 100 µM (inactive)	28.2 µM (inactive)			
Cc1cccc(C(C)(C)C)c1NC(=O)CC1C(=O)Nc2ccccc2S1(=O)=O (stereo not drawn)	16.8 µM (inactive)	2.34 µM (inactive)		10.4 µM (inactive)	4.76	3.25 µM (inactive)	11.5 µM (inactive)	5.25 µM (inactive)	2.84 µM (inactive)	9.29 µM (inactive)	2.28 µM (inactive)	16.7 µM (inactive)	10.6 µM (inactive)	3.24 µM (inactive)	15.5 µM (inactive)	10.4 µM (inactive)	8.28 µM (inactive)			
COC(=O)[C@H]1COC(=S)N1C(=O)[C@@H](C)[C@H](O)C(C)C	> 100 µM (inactive)	> 100 µM (inactive)	> 100 µM (inactive)	> 100 µM (inactive)	> 100	> 100 µM (inactive)	> 100 µM (inactive)	> 100 µM (inactive)	> 100 µM (inactive)	> 100 µM (inactive)	> 100 µM (inactive)	12.8 µM (inactive)	> 100 µM (inactive)	> 100 µM (inactive)	> 100 µM (inactive)	> 100 µM (inactive)	> 100 µM (inactive)			
O=C(CCc1nnc(S)[nH]1)Nc1cc(Cl)ccc1Cl	> 100 µM (inactive)	> 100 µM (inactive)	> 100 µM (inactive)	> 100 µM (inactive)	> 100	> 100 µM (inactive)	> 100 µM (inactive)	> 100 µM (inactive)	> 100 µM (inactive)	> 100 µM (inactive)	> 100 µM (inactive)	> 100 µM (inactive)	> 100 µM (inactive)	> 100 µM (inactive)	> 100 µM (inactive)	> 100 µM (inactive)	> 100 µM (inactive)			
COC(=O)C(C(=O)C(=O)Nc1ccc(N)cc1[N+](=O)[O-])c1nc2ccc(Cl)cc2nc1O (stereo not drawn)	> 100 µM (inactive)	92.5 µM (inactive)	> 100 µM (inactive)	> 100 µM (inactive)	> 100	> 100 µM (inactive)	52.7 µM (inactive)	> 100 µM (inactive)	> 100 µM (inactive)	> 100 µM (inactive)	> 100 µM (inactive)	63 µM (inactive)	> 100 µM (inactive)	> 100 µM (inactive)	> 100 µM (inactive)	> 100 µM (inactive)				
O=C(CC1Sc2ccccc2NC1=O)Nc1cc(Cl)ccc1Cl (stereo not drawn)	> 100 µM (inactive)	31.2 µM (inactive)		> 100 µM (inactive)	> 100	> 100 µM (inactive)	> 100 µM (inactive)	> 100 µM (inactive)	> 100 µM (inactive)	> 100 µM (inactive)	29.8 µM (inactive)	> 100 µM (inactive)	> 100 µM (inactive)	> 100 µM (inactive)	> 100 µM (inactive)	> 100 µM (inactive)	49.9 µM (inactive)			
COC(=O)C(c1n[nH]c2ccccc12)C(C(=O)OC)c1n[nH]c2ccccc12 (stereo not drawn)		24.5 µM (inactive)		41.4 µM (inactive)	> 100	16 µM (inactive)		64.4 µM (inactive)	28 µM (inactive)	> 100 µM (inactive)	22.7 µM (inactive)	> 100 µM (inactive)	24.8 µM (inactive)	13.5 µM (inactive)	> 100 µM (inactive)	18.3 µM (inactive)	> 100 µM (inactive)			
COc1ccc(C2C(Cl)C(=O)N2NC(=O)c2ccc(NC(C)=O)cc2)cc1 (stereo not drawn)	> 100 µM (inactive)	> 100 µM (inactive)	> 100 µM (inactive)	> 100 µM (inactive)	> 100	> 100 µM (inactive)	> 100 µM (inactive)	> 100 µM (inactive)	> 100 µM (inactive)	> 100 µM (inactive)	> 100 µM (inactive)	> 100 µM (inactive)	> 100 µM (inactive)		> 100 µM (inactive)	> 100 µM (inactive)	> 100 µM (inactive)			
O=C1c2ccccc2-c2ccccc2C(=O)C1(Br)Br	5.87 µM (inactive)	2.52 µM (inactive)	8.24 µM (inactive)	7.73 µM (inactive)	12.4	2.15 µM (inactive)	3.21 µM (inactive)	15.4 µM (inactive)	4.13 µM (inactive)	16.9 µM (inactive)	2.67 µM (inactive)	17.7 µM (inactive)	11 µM (inactive)	1.84 µM (inactive)	17.7 µM (inactive)	3.8 µM (inactive)	15.8 µM (inactive)			
Cc1c(C(=O)CC(=O)C(=O)Nc2ccc(Cl)cc2)[n+]([O-])c2ccccc2[n+]1[O-]	> 100 µM (inactive)	> 100 µM (inactive)	> 100 µM (inactive)	> 100 µM (inactive)	> 100	> 100 µM (inactive)	> 100 µM (inactive)		> 100 µM (inactive)	> 100 µM (inactive)	> 100 µM (inactive)	> 100 µM (inactive)	> 100 µM (inactive)	> 100 µM (inactive)	> 100 µM (inactive)	> 100 µM (inactive)	> 100 µM (inactive)			
ClCCNCCNCCCl.ClCCNCCNCCCl.[O-][Cl+3]([O-])([O-])O	19.1 µM (inactive)	29.5 µM (inactive)	40.7 µM (inactive)	27.5 µM (inactive)	55.8	30.3 µM (inactive)	39.7 µM (inactive)	> 100 µM (inactive)	23.6 µM (inactive)	67.3 µM (inactive)	31.4 µM (inactive)	> 100 µM (inactive)	18.9 µM (inactive)	33.3 µM (inactive)	> 100 µM (inactive)	21 µM (inactive)	25.4 µM (inactive)			
COc1ccc2c(c1)CN1CCc3c(cc(OC)c(OC)c3OC)C1C2 (stereo not drawn)	> 100 µM (inactive)	74.6 µM (inactive)	> 100 µM (inactive)	> 100 µM (inactive)	> 100	41.5 µM (inactive)	> 100 µM (inactive)	68.5 µM (inactive)	57.5 µM (inactive)	> 100 µM (inactive)	63 µM (inactive)	> 100 µM (inactive)	> 100 µM (inactive)	38.4 µM (inactive)	> 100 µM (inactive)	> 100 µM (inactive)	> 100 µM (inactive)			
Cc1nc(N)nc(N)c1-c1ccc(Cl)c(Cl)c1 [METOPRINE]	5.18 µM (inactive)	0.432 µM (active)	10.4 µM (inactive)	0.0399 µM (active)	0.145	0.13 µM (active)	7.6 µM (inactive)	0.258 µM (active)	0.0219 µM (active)	0.94 µM (active)	0.607 µM (active)	> 33.3 µM (inactive)	0.603 µM (active)	6.28 µM (inactive)	2.69 µM (inactive)	0.144 µM (active)	0.635 µM (active)	0.141 µM (active)	1.1 µM (active)	0.0785 µM (active)

Source: ChEMBL document CHEMBL1201862, “PubChem BioAssay data set” (2004)
